Holding throughout (assay): Post-emergence herbicidal action, greenhouse pot trial
Holding throughout (assay type): in vivo

For one assay, the system named is Bassia scoparia (KCHSC). To be noted: for Post-emergence effect at 20 g/ha against KCHSC in %: visual rating after about 3 weeks; for pest or weed control at 80 g/ha / pest or weed control at 320 g/ha: Bassia scoparia, 504 h, read-out: Post-emergence effect against KCHSC. The gist of the method: (§1)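 Visual % activity versus untreated controls (100% = plants died, 0% = like control), scored about 3 weeks post-spray. Plants grown in sandy loam pots under greenhouse conditions were treated at the one-leaf stage with WP or EC formulations at 320 g/ha or lower.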

The subject of assay [1] is Digitaria sanguinalis (DIGSA). To be noted: visual rating after about 3 weeks; for pest or weed control at 320 g/ha: Digitaria sanguinalis, 504 h, read-out: Post-emergence effect at 320 g/ha against DIGSA in %. The gist of the method: as §1
Assay [2] has as its system Echinochloa crus-galli (ECHCG). To be noted: visual rating after about 3 weeks; for pest or weed control at 320 g/ha: read-out: Post-emergence effect at 320 g/ha against ECHCG in %. An outline of the steps:
as §1

For the next assay, the system named is Veronica persica (VERPE). To be noted: visual rating after about 3 weeks; for pest or weed control at 320 g/ha: Veronica persica, 504 h, read-out: Post-emergence effect at 320 g/ha against VERPE in %. The gist of the method:
as §1

The test system of a further assay is Viola tricolor (VIOTR). To be noted: for pest or weed control at 20 g/ha / pest or weed control at 80 g/ha / pest or weed control at 320 g/ha: Viola tricolor, 504 h, read-out: Post-emergence effect against VIOTR. An outline of the steps: as §1
In assay [3] the test system is Alopecurus myosuroides (ALOMY). The note with it: visual rating after about 3 weeks. An outline of the steps:
as §1

The test system of the next assay is Lolium rigidum (LOLRI). The note with it: visual rating after about 3 weeks; for pest or weed control at 320 g/ha: Lolium rigidum, 504 h, read-out: Post-emergence effect at 320 g/ha against LOLRI in %. An outline of the steps:
as §1

The next assay deals with Avena fatua (AVEFA). To be noted: visual rating after about 3 weeks; for pest or weed control at 320 g/ha: Avena fatua, 504 h, read-out: Post-emergence effect at 320 g/ha against AVEFA in %. An outline of the steps: as §1
Assay [4] concerns Matricaria inodora (MATIN). To be noted: Tripleurospermum inodorum, 504 h, visual rating after about 3 weeks; for pest or weed control at 80 g/ha: read-out: Post-emergence effect at 80 g/ha against MATIN in %; for pest or weed control at 320 g/ha: read-out: Post-emergence effect at 320 g/ha against MATIN in %. An outline of the steps:
as §1

Assay [5] concerns Polygonum convolvulus (POLCO). To be noted: Fallopia convolvulus, 504 h, visual rating after about 3 weeks; for pest or weed control at 80 g/ha: read-out: Post-emergence effect at 80 g/ha against POLCO in %; for pest or weed control at 320 g/ha: read-out: Post-emergence effect at 320 g/ha against POLCO in %. The gist of the method: as §1
For assay [6], the system named is Abutilon theophrasti (ABUTH). The note with it: visual rating after about 3 weeks; for pest or weed control at 80 g/ha / pest or weed control at 320 g/ha: Abutilon theophrasti, 504 h; for pest or weed control at 80 g/ha: read-out: Post-emergence effect at 80 g/ha against ABUTH in %; for pest or weed control at 320 g/ha: read-out: Post-emergence effect at 320 g/ha against ABUTH in %. The gist of the method:
as §1

For another assay, the system named is Setaria viridis (SETVI). To be noted: visual rating after about 3 weeks; for pest or weed control at 320 g/ha: Setaria viridis, 504 h, read-out: Post-emergence effect at 320 g/ha against SETVI in %. The gist of the method:
as §1

Assay [7] relates to Pharbitis purpurea (PHBPU). The note with it: visual rating after about 3 weeks; for pest or weed control at 80 g/ha / pest or weed control at 320 g/ha: Ipomoea purpurea, 504 h; for pest or weed control at 80 g/ha: read-out: Post-emergence effect at 80 g/ha against PHBPU in %; for pest or weed control at 320 g/ha: read-out: Post-emergence effect at 320 g/ha against PHBPU in %. An outline of the steps:
as §1

The test system of assay [8] is Amaranthus retroflexus (AMARE). The note with it: visual rating after about 3 weeks; for pest or weed control at 80 g/ha / pest or weed control at 320 g/ha: Amaranthus retroflexus, 504 h; for pest or weed control at 80 g/ha: read-out: Post-emergence effect at 80 g/ha against AMARE in %; for pest or weed control at 320 g/ha: read-out: Post-emergence effect at 320 g/ha against AMARE in %. An outline of the steps: as §1

[9] abbreviates: Echinochloa crus-galli, 504 h, 320 g/ha.

`CCOC(=O)C(Oc1nn(-c2ccccc2F)c(-c2ccc(F)nc2)c1Br)SC` (single isomer, unassigned) [Example I-40]: in the assay on Bassia scoparia (KCHSC), the “Post-emergence effect at 20 g/ha against KCHSC in %” value is 80%, the pest or weed control at 80 g/ha came to 90% and the pest or weed control at 320 g/ha was 90%. For the same molecule, in assay [1] (20 g/ha), the “Post-emergence action at 20 g/ha against DIGSA in %” value is 90%. In addition, the “Post-emergence effect at 80 g/ha against DIGSA in %” value in assay [1] was 90%. Moreover, in assay [1] (320 g/ha), the “Post-emergence effect at 320 g/ha against DIGSA in %” value turned out to be 90%. Also, the “Post-emergence effect at 20 g/ha against ECHCG in %” value in assay [2] (20 g/ha) came out at 80%. Besides, the “Post-emergence effect at 80 g/ha against ECHCG in %” value in assay [2] (80 g/ha) came out at 80%. Moreover, the “Post-emergence effect at 320 g/ha against ECHCG in %” value in assay [2] (320 g/ha) was 90%. In addition, in the assay on Veronica persica (VERPE) (20 g/ha), the “Post-emergence effect at 20 g/ha against VERPE in %” value was 80%. In the assay on Veronica persica (VERPE), the “Post-emergence effect at 80 g/ha against VERPE in %” value is given as 80% and the pest or weed control at 320 g/ha was 80%. Further, the “Post-emergence effect against VIOTR” value with Viola tricolor (VIOTR) (320 g/ha) is reported as 80%. Also, the “Post-emergence effect at 20 g/ha against ALOMY in %” value in [3] (20 g/ha) was found to be 80%. Besides, in assay [3] (80 g/ha), the “Post-emergence effect at 80 g/ha against ALOMY in %” value came to 80%. In assay [3] (320 g/ha), the “Post-emergence effect at 320 g/ha against ALOMY in %” value is reported as 80%. Moreover, in the assay with Lolium rigidum (LOLRI) (20 g/ha), the “Post-emergence effect at 20 g/ha against LOLRI in %” value worked out at 80%. For the same molecule, in the assay on Lolium rigidum (LOLRI) (80 g/ha), the “Post-emergence effect at 80 g/ha against LOLRI in %” value was 80%. The “Post-emergence effect at 320 g/ha against LOLRI in %” value with Lolium rigidum (LOLRI) (320 g/ha) came to 90%. Further, in the assay on Avena fatua (AVEFA) (20 g/ha), the “Post-emergence effect at 20 g/ha against AVEFA in %” value was determined as 80%. For the same molecule, in the assay with Avena fatua (AVEFA) (80 g/ha), the “Post-emergence effect at 80 g/ha against AVEFA in %” value stood at 90%. In the assay with Avena fatua (AVEFA), the pest or weed control at 320 g/ha is 90%.

For the molecule `CCOC(=O)C(Oc1nn(-c2ncccc2F)c(-c2cncc(F)c2)c1Br)SC` (stereo not shown) [Example I-39], the pest or weed control at 80 g/ha in [4] was 80%; in assay [5] it was 80%; in assay [6], 90%; in the assay on Bassia scoparia (KCHSC), 90%; in assay [2] (Echinochloa crus-galli, 504 h, 80 g/ha, read-out: Post-emergence effect at 80 g/ha against ECHCG in %) it was 90%; in the assay with Viola tricolor (VIOTR), 80%. For the same molecule, the pest or weed control at 80 g/ha in assay [7] and in assay [8] was 80% each time. Further, the pest or weed control at 320 g/ha in assay [4] was determined as 90%; in assay [5] it was 80%; in assay [6], 90%; in the assay on Bassia scoparia (KCHSC), 90%; in assay [1] (320 g/ha), 90%; in the assay with Setaria viridis (SETVI) it was 90%. Further, the pest or weed control at 320 g/ha in assay [2] (setting [9]) was found to be 90%; in the assay on Veronica persica (VERPE), 80%; with Viola tricolor (VIOTR) (320 g/ha), 90%; in [7] it was 90%; in [8] it was 90%; in the assay with Lolium rigidum (LOLRI) (320 g/ha), 90%. Besides, the pest or weed control at 320 g/ha in the assay on Avena fatua (AVEFA) was 90%. In addition, the “Post-emergence action at 20 g/ha against ABUTH in %” value in assay [6] was found to be 80%. Also, the “Post-emergence effect at 20 g/ha against KCHSC in %” value in the assay on Bassia scoparia (KCHSC) was determined as 80%. Moreover, the “Post-emergence effect at 80 g/ha against DIGSA in %” value in assay [1] is on record as 80%. Further, in the assay with Setaria viridis (SETVI) (80 g/ha), the “Post-emergence effect at 80 g/ha against SETVI in %” value is 90%. The pest or weed control at 20 g/ha with Viola tricolor (VIOTR) was found to be 80%. Further, in assay [8], the “Post-emergence effect at 20 g/ha against AMARE in %” value turned out to be 80%.

Take `CCOC(=O)C(Oc1nn(-c2ncccc2F)c(-c2cncc(F)c2)c1C1CC1)SC` (stereo not shown) [Example I-41]: the pest or weed control at 80 g/ha in assay [4] was found to be 80%; in assay [5], 80%; in assay [6], 90%; with Viola tricolor (VIOTR) it was 90%; in assay [8], 90%. Moreover, the pest or weed control at 320 g/ha (in assay [4]; in assay [5]; in assay [6]; in the assay on Bassia scoparia (KCHSC); with Setaria viridis (SETVI); in assay [2] (setting [9])) was 90% in each case. In addition, the pest or weed control at 320 g/ha with Veronica persica (VERPE) was 80%; in the assay with Viola tricolor (VIOTR) (320 g/ha) it was 90%; in assay [3] (Alopecurus myosuroides, 504 h, 320 g/ha, read-out: Post-emergence effect at 320 g/ha against ALOMY in %) it was 80%; in [7], 80%; in assay [8], 90%; with Avena fatua (AVEFA) it was 100%. The “Post-emergence action at 20 g/ha against ABUTH in %” value in [6] was found to be 80%. The pest or weed control at 20 g/ha in the assay on Viola tricolor (VIOTR) was determined as 90%. Besides, in [8], the “Post-emergence effect at 20 g/ha against AMARE in %” value turned out to be 80%.

Consider `CSC(Oc1nn(-c2ncccc2F)c(-c2cncc(F)c2)c1Br)C(=O)O` (stereo not shown) [Example I-42], for which the pest or weed control at 80 g/ha in assay [4] turned out to be 80%; in assay [5], 80%; in [6] it was 80%; with Bassia scoparia (KCHSC), 90%; with Viola tricolor (VIOTR) it was 90%; in assay [7] it was 80%. The pest or weed control at 80 g/ha in assay [8] was found to be 90%. In addition, the pest or weed control at 320 g/ha (in assay [4]; in assay [5]; in [6]; in the assay on Bassia scoparia (KCHSC); in [1] (320 g/ha); in the assay with Setaria viridis (SETVI)) was 90% each time. The pest or weed control at 320 g/ha in [2] (setting [9]) amounted to 90%; in the assay on Veronica persica (VERPE), 80%; in the assay with Viola tricolor (VIOTR) (320 g/ha) it was 90%; in assay [7] it was 90%; in assay [8], 90%; with Lolium rigidum (LOLRI) (320 g/ha) it was 90%. In the assay with Avena fatua (AVEFA), the pest or weed control at 320 g/ha came out at 100%. The “Post-emergence effect at 80 g/ha against DIGSA in %” value in assay [1] was 80%. In addition, the pest or weed control at 20 g/ha in the assay with Viola tricolor (VIOTR) was found to be 90%. Moreover, the “Post-emergence effect at 20 g/ha against PHBPU in %” value in assay [7] (20 g/ha) is 80%.

Take `COC(=O)C(Oc1nn(-c2ncccc2F)c(-c2cncc(F)c2)c1C1CC1)SC` (stereo not shown) [Example I-66]: the pest or weed control at 80 g/ha turned out to be 80% in assay [4]; 80% in assay [5]; 80% in [6]; 90% in the assay on Viola tricolor (VIOTR); 90% in assay [8]. For the same molecule, the pest or weed control at 320 g/ha was found to be 90% in assay [4]; 80% in assay [5]; 90% in assay [6]; 90% with Bassia scoparia (KCHSC); 80% in assay [1] (320 g/ha); 80% in the assay with Setaria viridis (SETVI). For the same molecule, the pest or weed control at 320 g/ha (in [2] (setting [9]); in the assay with Veronica persica (VERPE); in the assay on Viola tricolor (VIOTR) (320 g/ha); in [7]; in [8]; with Lolium rigidum (LOLRI) (320 g/ha)) was 90% each time. Besides, in the assay with Avena fatua (AVEFA), the pest or weed control at 320 g/ha stood at 80%. The “Post-emergence effect at 80 g/ha against VERPE in %” value with Veronica persica (VERPE) was found to be 90%. Moreover, the pest or weed control at 20 g/ha in the assay with Viola tricolor (VIOTR) was determined as 90%.

These data come from US20250026724A1, “(1,4,5-TRISUBSTITUTED 1H-PYRAZOL-3-YL)OXY-2-ALKYLTHIOALKYL ACIDS AND -ALKYL ACID DERIVATIVES, SALTS THEREOF AND USE THEREOF AS ACTIVE HERBICIDAL INGREDIENTS” (BAYER AKTIENGESELLSCHAFT, priority 2021, published 2025).
